According to PubChem BioAssay AID330 (DTP/NCI, 2004):
Values joined by “and” are separate entries in the source; they are usually repeats but may differ in a detail not shown here. Identical values can stand only once. Inconclusive results and toxic doses are left out. Rule for the calls: active = survival T/C of 150% or more; inactive = T/C below 125% in these data.

System: P388 leukemia ip, CD2F1 mice, survival T/C
Experiment: NCI In Vivo Anticancer Drug Screen. Data for tumor model P388 Leukemia (intraperitoneal) in CD2F1 (CDF1) mice
Details: endpoint: median survival time, higher = longer survival
How it was run: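 Mice carrying the transplanted tumor received test compound or vehicle. Survival was recorded in each group, and the value is the treated-group measurement divided by that of the vehicle-treated control group.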

[1] = dose: 50.0 mg/kg/injection, schedule: Q01DX001 (ip), vehicle: other
[2] = dose: 50.0 mg/kg/injection, schedule: Q01DX009 (ip), vehicle: saline with Tween-80
[3] = dose: 100.0 mg/kg/injection, schedule: Q01DX009 (ip), vehicle: saline with Tween-80
[4] = dose: 50.0 mg/kg/injection, schedule: Q01DX005 (ip), vehicle: saline with Tween-80
[5] = dose: 100.0 mg/kg/injection, schedule: Q01DX005 (ip), vehicle: saline with Tween-80
[6] = dose: 50.0 mg/kg/injection, schedule: Q01DX009 (ip), vehicle: saline
[7] = dose: 100.0 mg/kg/injection, schedule: Q01DX009 (ip), vehicle: saline
[8] = dose: 200.0 mg/kg/injection, schedule: Q01DX009 (ip), vehicle: saline
[9] = dose: 50.0 mg/kg/injection, schedule: Q01DX005 (ip), vehicle: Klucel (hydroxypropylcellulose) (HPC)
[10] = dose: 200.0 mg/kg/injection, schedule: Q01DX005 (ip), vehicle: saline with Tween-80

Measured: T/C

C/C=C/C=C/C(O)CC(=O)N1OC2(C)c3ccccc3C1(C)c1ccccc12 (configuration not stated)
inactive: dose: 100.0 mg/kg/injection, schedule: Q04DX003 (ip), vehicle: saline + alcohol 92 % of control | dose: 200.0 mg/kg/injection, schedule: Q04DX003 (ip), vehicle: saline + alcohol 92 % of control | dose: 400.0 mg/kg/injection, schedule: Q04DX003 (ip), vehicle: saline + alcohol 98 % of control

NC(N)=N/N=C\c1ccnc2ccccc12
inactive: dose: 7.5 mg/kg/injection, schedule: Q01DX005 (ip), vehicle: saline 100 % of control | dose: 15.0 mg/kg/injection, schedule: Q01DX005 (ip), vehicle: saline 105 % of control | dose: 30.0 mg/kg/injection, schedule: Q01DX005 (ip), vehicle: saline 105 % of control | dose: 60.0 mg/kg/injection, schedule: Q01DX005 (ip), vehicle: saline 105 % of control

Cc1cc([N+](=O)[O-])c([N+](=O)[O-])cc1Cl
inactive: [1] 100 % of control | dose: 100.0 mg/kg/injection, schedule: Q01DX001 (ip), vehicle: other 100 % of control | dose: 200.0 mg/kg/injection, schedule: Q01DX001 (ip), vehicle: other 105 % of control

N#CC1=C(Nc2ccccc2Cl)SC(c2ccccc2O)NC1=O (configuration not stated)
inactive: dose: 60.0 mg/kg/injection, schedule: Q01DX005 (ip), vehicle: saline with Tween-80 103 % of control | dose: 120.0 mg/kg/injection, schedule: Q01DX005 (ip), vehicle: saline with Tween-80 102 % of control | dose: 240.0 mg/kg/injection, schedule: Q01DX005 (ip), vehicle: saline with Tween-80 96 % of control

COc1ccc(-c2sc(/N=C/c3cc(Br)cc(Br)c3O)c(C#N)c2C)cc1OC
inactive: dose: 12.5 mg/kg/injection, schedule: Q01DX009 (ip), vehicle: saline with Tween-80 103 % of control | dose: 25.0 mg/kg/injection, schedule: Q01DX009 (ip), vehicle: saline with Tween-80 97 % of control | [2] 99 % of control | [3] 94 % of control

CCCC1CC2=C(C(=O)c3c(OC)cccc3C2=O)C(O)(C(F)(F)F)O1 (configuration not stated)
inactive: dose: 100.0 mg/kg/injection, schedule: Q01DX001 (ip), vehicle: Klucel (hydroxypropylcellulose) (HPC) 103 % of control | dose: 200.0 mg/kg/injection, schedule: Q01DX001 (ip), vehicle: Klucel (hydroxypropylcellulose) (HPC) 109 % of control | dose: 400.0 mg/kg/injection, schedule: Q01DX001 (ip), vehicle: Klucel (hydroxypropylcellulose) (HPC) 94 % of control

CCCCC(=O)Nc1ccc(S(=O)(=O)O)c(N=NC2C(=O)N(c3ccccc3)N=C2C)c1 (configuration not stated)
inactive: dose: 100.0 mg/kg/injection, schedule: Q04DX003 (ip), vehicle: saline 110 % of control | dose: 200.0 mg/kg/injection, schedule: Q04DX003 (ip), vehicle: saline 100 % of control | dose: 400.0 mg/kg/injection, schedule: Q04DX003 (ip), vehicle: saline 100 % of control

CC1C2(c3ccccc3)C(C(=O)c3ccccc3)NC(c3ccccc3)C12c1ccccc1 (configuration not stated)
inactive: [4] 87 % of control | [5] 87 % of control

CC(CC(N)=O)Cc1ccccc1 (configuration not stated)
inactive: dose: 100.0 mg/kg/injection, schedule: Q01DX001 (ip), vehicle: saline with Tween-80 104 % of control | dose: 200.0 mg/kg/injection, schedule: Q01DX001 (ip), vehicle: saline with Tween-80 103 % of control | dose: 400.0 mg/kg/injection, schedule: Q01DX001 (ip), vehicle: saline with Tween-80 104 % of control

COC(=O)C[C@@]1(C(=O)OC)[C@@H](C(=O)OC)C(C(=O)OC)=NN1C
inactive: dose: 12.5 mg/kg/injection, schedule: Q04DX002 (ip), vehicle: Klucel (hydroxypropylcellulose) (HPC) 100 % of control | dose: 25.0 mg/kg/injection, schedule: Q04DX002 (ip), vehicle: Klucel (hydroxypropylcellulose) (HPC) 98 % of control | dose: 50.0 mg/kg/injection, schedule: Q04DX002 (ip), vehicle: Klucel (hydroxypropylcellulose) (HPC) 100 % of control

Cc1cc(C)cc([C@H](C)N=Cc2cc(Br)ccc2O)c1
inactive: dose: 100.0 mg/kg/injection, schedule: Q04DX002 (ip), vehicle: saline with Tween-80 100 % of control | dose: 200.0 mg/kg/injection, schedule: Q04DX002 (ip), vehicle: saline with Tween-80 100 % of control | dose: 400.0 mg/kg/injection, schedule: Q04DX002 (ip), vehicle: saline with Tween-80 108 % of control

N#CC(C(O)c1ccccc1)N1CCOCC1 (configuration not stated)
inactive: dose: 50.0 mg/kg/injection, schedule: Q01DX009 (ip), vehicle: suspension in saline 102 % of control | dose: 100.0 mg/kg/injection, schedule: Q01DX009 (ip), vehicle: suspension in saline 109 % of control | dose: 200.0 mg/kg/injection, schedule: Q01DX009 (ip), vehicle: suspension in saline 94 % of control

CC(C)CC(NC(=O)OC(C)(C)C)C(=O)NC(Cc1c[nH]c2ccccc12)C(=O)NN (configuration not stated)
inactive: dose: 25.0 mg/kg/injection, schedule: Q01DX009 (ip), vehicle: saline 87 % of control | [6] 94 % of control | [7] 92 % of control | [8] 92 % of control

CO/N=C/c1ccc([N+](=O)[O-])s1
inactive: dose: 12.0 mg/kg/injection, schedule: Q01DX001 (ip), vehicle: other 90 % of control | dose: 25.0 mg/kg/injection, schedule: Q01DX001 (ip), vehicle: other 104 % of control | [1] 100 % of control

Cc1cc(=O)n(-c2ccccc2)c(=O)[nH]1
inactive: [6] 104 % of control | [7] 111 % of control | [8] 111 % of control

O=C(O)COc1cc2c(cc1Cc1ccc3c(c1)OCO3)OCO2
inactive: [9] 99 % of control | dose: 100.0 mg/kg/injection, schedule: Q01DX005 (ip), vehicle: Klucel (hydroxypropylcellulose) (HPC) 96 % of control | dose: 200.0 mg/kg/injection, schedule: Q01DX005 (ip), vehicle: Klucel (hydroxypropylcellulose) (HPC) 97 % of control

CC(C)N1C(=O)C2C3C=CC(C3)C2C1=O (configuration not stated)
inactive: dose: 25.0 mg/kg/injection, schedule: Q04DX002 (ip), vehicle: saline with Tween-80 94 % of control | dose: 50.0 mg/kg/injection, schedule: Q04DX002 (ip), vehicle: saline with Tween-80 108 % of control

CC(C)CCC(NS(=O)(=O)c1cc(I)c(N)c(I)c1)C(=O)O (configuration not stated)
inactive: [4] 99 % of control | [5] 96 % of control | [10] 103 % of control

COc1cc2c(c(OC)c1OC)-c1cc3c(cc1C(OC1c4cc5c(cc4-c4c(cc(OC)c(OC)c4OC)CC4C(=O)OCC41)OCO5)C1COC(=O)C1C2)OCO3 (configuration not stated)
inactive: dose: 2.5 mg/kg/injection, schedule: Q01DX005 (ip), vehicle: Klucel (hydroxypropylcellulose) (HPC) 109 % of control | dose: 5.0 mg/kg/injection, schedule: Q01DX005 (ip), vehicle: Klucel (hydroxypropylcellulose) (HPC) 98 % of control | dose: 10.0 mg/kg/injection, schedule: Q01DX005 (ip), vehicle: Klucel (hydroxypropylcellulose) (HPC) 92 % of control | dose: 20.0 mg/kg/injection, schedule: Q01DX005 (ip), vehicle: Klucel (hydroxypropylcellulose) (HPC) 109 % of control

C[CH2][Ge]([CH2]C)[O]C(=O)C(=O)[O][Ge]([CH2]C)[CH2]C
inactive: dose: 12.5 mg/kg/injection, schedule: Q01DX005 (ip), vehicle: Klucel (hydroxypropylcellulose) (HPC) 100 % of control | dose: 25.0 mg/kg/injection, schedule: Q01DX005 (ip), vehicle: Klucel (hydroxypropylcellulose) (HPC) 103 % of control | [9] 118 % of control

Cc1cc(/C=C2\SC(=S)NC2=O)cc(C)c1O
inactive: [4] 110 % of control | [5] 94 % of control | [10] 90 % of control

C[N+]1(C)CCC(OC(=O)C(O)(c2ccccc2)C2CCCC2)C1 (configuration not stated)
inactive: dose: 12.5 mg/kg/injection, schedule: Q01DX009 (ip), vehicle: Klucel (hydroxypropylcellulose) (HPC) 95 % of control | dose: 25.0 mg/kg/injection, schedule: Q01DX009 (ip), vehicle: Klucel (hydroxypropylcellulose) (HPC) 97 % of control | dose: 25.0 mg/kg/injection, schedule: Q04DX003 (ip), vehicle: saline with Tween-80 105 % of control | dose: 50.0 mg/kg/injection, schedule: Q01DX009 (ip), vehicle: Klucel (hydroxypropylcellulose) (HPC) 89 % of control and 95 % of control | dose: 50.0 mg/kg/injection, schedule: Q04DX003 (ip), vehicle: saline with Tween-80 102 % of control | dose: 100.0 mg/kg/injection, schedule: Q04DX003 (ip), vehicle: saline with Tween-80 99 % of control

CCC12CCCN3CCc4c(n(c5ccc(Br)cc45)C(=O)CC1)C32 (configuration not stated)
inactive: dose: 12.5 mg/kg/injection, schedule: Q01DX005 (ip), vehicle: saline with Tween-80 99 % of control | dose: 25.0 mg/kg/injection, schedule: Q01DX005 (ip), vehicle: saline with Tween-80 90 % of control | [4] 88 % of control and 91 % of control

Cc1oc(-c2ccccc2)nc1C(N)=O
inactive: [2] 106 % of control and 89 % of control and 95 % of control | [3] 101 % of control and 91 % of control and 96 % of control | dose: 200.0 mg/kg/injection, schedule: Q01DX009 (ip), vehicle: saline with Tween-80 99 % of control and 100 % of control
